# Reference: PubChem BioAssay (NCI)
#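 All cell lines were grown in 96-well plates and treated with compound for 48 hours. At the TGI there is no net growth.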
# Experiments:
# Assay in all cases: growth of human tumour cells (NCI), 48 h
# 786-0 renal = test system: 786-0 renal
# ACHN renal = test system: ACHN renal
# DU-145 prostate = test system: DU-145 prostate
# HCT-116 colon = test system: HCT-116 colon
# HCT-15 colon = test system: HCT-15 colon
# HS 578T breast = test system: HS 578T breast
# K-562 leukemia = test system: K-562 leukemia
# KM12 colon = test system: KM12 colon
# LOX IMVI melanoma = test system: LOX IMVI melanoma
# M14 melanoma = test system: M14 melanoma
# MDA-MB-231 breast = test system: MDA-MB-231 breast
# MDA-MB-435 = test system: MDA-MB-435
# SK-MEL-28 melanoma = test system: SK-MEL-28 melanoma
# SK-MEL-5 melanoma = test system: SK-MEL-5 melanoma
# SK-OV-3 ovarian = test system: SK-OV-3 ovarian
# SW-620 colon = test system: SW-620 colon
# UACC-257 melanoma = test system: UACC-257 melanoma
# UO-31 renal = test system: UO-31 renal
# RXF 393 renal = test system: RXF 393 renal
Structure (SMILES),TGI (786-0 renal) [µM],TGI (ACHN renal) [µM],TGI (DU-145 prostate) [µM],TGI (HCT-116 colon) [µM],TGI (HCT-15 colon) [µM],TGI (HS 578T breast) [µM],TGI (K-562 leukemia) [µM],TGI (KM12 colon) [µM],TGI (LOX IMVI melanoma) [µM],TGI (M14 melanoma) [µM],TGI (MDA-MB-231 breast) [µM],TGI (MDA-MB-435) [µM],TGI (SK-MEL-28 melanoma) [µM],TGI (SK-MEL-5 melanoma) [µM],TGI (SK-OV-3 ovarian) [µM],TGI (SW-620 colon) [µM],TGI (UACC-257 melanoma) [µM],TGI (UO-31 renal) [µM],TGI (RXF 393 renal) [µM]
O=C1C=C2CC[C@H]3[C@@H]4CC[C@H](OC(=O)c5cccc6cc7ccccc7nc56)[C@H]4CC[C@@H]3[C@H]2CC1,> 100,> 100,> 100,> 100,> 100,> 100,> 100,> 100,29.7,> 100,> 100,> 100,> 100,> 100,> 100,> 100,> 100,> 100,–
Cc1ccc(C2SCC(=O)N2NC(=O)c2ccncc2)s1 (centres undefined),> 100,> 100,> 100,> 100,> 100,–,> 100,> 100,> 100,> 100,> 100,> 100,> 100,> 100,> 100,> 100,> 100,> 100,> 100
O=C(Nc1ccc(Cl)cc1)NS(=O)(=O)c1c(-c2ccccc2)oc2ccccc2c1=O,> 100,> 100,> 100,> 100,> 100,> 100,> 100,> 100,> 100,–,–,> 100,> 100,> 100,> 100,> 100,> 100,> 100,> 100
O=c1c2cc(S(=O)(=O)Nc3c(Cl)cccc3Cl)ccc2ncn1NS(=O)(=O)c1ccc2ccccc2c1,> 62.5,> 62.5,> 62.5,> 62.5,> 62.5,> 62.5,> 62.5,> 62.5,> 62.5,> 62.5,> 62.5,> 62.5,> 62.5,–,> 62.5,> 62.5,> 62.5,> 62.5,–
C=C(CN)CO[Si](C)(C)C(C)(C)C,> 100,> 100,> 100,> 100,> 100,> 100,> 100,> 100,> 100,> 100,> 100,> 100,> 100,> 100,> 100,> 100,> 100,> 100,–
NC(=O)OCc1c(-c2ccccc2)nn(-c2ccccc2)c1COC(N)=O,> 100,–,> 100,> 100,> 100,–,–,> 100,–,> 100,> 100,> 100,> 100,> 100,–,> 100,> 100,> 100,> 100
Oc1cccc2c1[nH]c1c(C3=C[C@@]4(O)CC/C=C\CCCCN5CC[C@@H]3[C@]3(CC6/C=C\CCCCN6[C@H]34)C5)nccc12 (some centres undefined),1.86,4.1,4.64,2.74,1.86,3.69,2.01,2.99,2.04,2.45,2.81,2.17,3.73,2.96,5.15,3.44,5.79,3.5,–
CN(C)c1nc(=NCc2cccnc2)ss1,> 10,–,> 10,–,> 10,–,> 10,> 10,> 10,> 10,> 10,> 10,> 10,> 10,> 10,> 10,> 10,–,> 10
COc1ccc(C(c2ccc3c(c2)OCO3)N2C(=O)CCC2C(=O)O)cc1 (centres undefined),> 100,> 100,> 100,> 100,> 100,–,> 100,> 100,> 100,> 100,> 100,> 100,> 100,> 100,> 100,> 100,> 100,> 100,–
O=C(/C=C/c1ccc2c(c1)OCO2)CC(=O)/C=C/c1ccc2c(c1)OCO2,> 100,> 100,–,> 100,> 100,> 100,> 100,10.8,> 100,> 100,> 100,> 100,–,> 100,> 100,> 100,–,> 100,> 100
Cc1ccc(S(=O)(=O)Nn2c(O)c(C#N)c(-c3ccc(N(C)C)cc3)c(C#N)c2=O)cc1,> 50,> 50,–,> 50,> 50,> 50,> 50,> 50,> 50,–,> 50,> 50,> 50,> 50,27.4,> 50,> 50,–,> 50
